Assays:
GASC1 (KDM4C) = target: T1, GASC1 (KDM4C) (Homo sapiens, UniProt Q9H3R0); assay: Immunofluorescence assay in U2OS cells transfected with pCMVHA JMJD2C (H3K9me3 mark); type: cell-based; details: 20 hours
T1 construct: Full length; host or cells: U2OS
T1 sequence (Q9H3R0 1-1056): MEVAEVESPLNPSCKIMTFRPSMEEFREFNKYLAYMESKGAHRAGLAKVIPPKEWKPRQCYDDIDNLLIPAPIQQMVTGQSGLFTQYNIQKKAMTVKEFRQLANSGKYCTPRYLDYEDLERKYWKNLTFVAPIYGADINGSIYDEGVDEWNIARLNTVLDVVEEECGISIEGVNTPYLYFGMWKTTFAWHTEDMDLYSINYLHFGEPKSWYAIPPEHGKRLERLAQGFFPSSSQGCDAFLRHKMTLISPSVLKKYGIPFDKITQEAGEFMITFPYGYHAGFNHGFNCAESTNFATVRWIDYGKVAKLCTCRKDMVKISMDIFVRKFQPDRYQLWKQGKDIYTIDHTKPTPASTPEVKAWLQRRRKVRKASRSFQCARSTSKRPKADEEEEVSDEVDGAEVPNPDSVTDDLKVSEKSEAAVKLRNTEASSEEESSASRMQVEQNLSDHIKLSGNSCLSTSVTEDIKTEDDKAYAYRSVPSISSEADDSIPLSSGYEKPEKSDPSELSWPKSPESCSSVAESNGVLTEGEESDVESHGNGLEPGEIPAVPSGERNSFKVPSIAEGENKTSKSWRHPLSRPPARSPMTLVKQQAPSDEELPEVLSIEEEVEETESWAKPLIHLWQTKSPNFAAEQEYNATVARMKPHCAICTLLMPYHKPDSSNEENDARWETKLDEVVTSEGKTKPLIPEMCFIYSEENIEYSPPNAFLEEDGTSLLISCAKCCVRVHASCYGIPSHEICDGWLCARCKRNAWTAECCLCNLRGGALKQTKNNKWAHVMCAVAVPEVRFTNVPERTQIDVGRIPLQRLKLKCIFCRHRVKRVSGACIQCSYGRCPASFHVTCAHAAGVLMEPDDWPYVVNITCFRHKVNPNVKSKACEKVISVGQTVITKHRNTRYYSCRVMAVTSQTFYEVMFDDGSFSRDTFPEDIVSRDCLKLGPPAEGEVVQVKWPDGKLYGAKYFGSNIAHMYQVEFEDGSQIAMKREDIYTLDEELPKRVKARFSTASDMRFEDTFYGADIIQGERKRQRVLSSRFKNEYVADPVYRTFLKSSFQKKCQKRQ
Procedure: (§1) U2OS cells were seeded 24 hours before transfection. Transfection was performed with Fugene HD transfection reagent as recommended by the manufacturer. 6 hours after transfection, the cells were harvested and seeded into multi well plates into media containing compound. The media used was DMEM containing 5% FBS and pen/strep. 20 hours after incubation of cells with compounds, the cells were washed once in PBS, harvested by fixation with formaldehyde 4% aqueous solution, and washed 2 times in PBS. Subsequently, the cells were permeabilized in PBS with 0.2% Triton X-100 for 10 min at room temperature. Blocking was performed in PBS with 0.2% Triton X-100 and 5% FBS for 45 min at room temperature. The cells were incubated with primary antibodies diluted 1 μg/ml in blocking solution over night at 4° C. The primary antibodies used in the assays were HA.11 (Covance, MMS-101P) and the antibody detecting the mark specified in the Table 6 below. After incubation with primary antibodies, the cells were washed 3 times with PBS, incubated with secondary antibodies diluted 1:1000 (Alexa fluor 594 goat anti rabbit IgG, Invitrogen, A11012; Alexa flour 488 donkey anti mouse IgG, Invitrogen, A21202) and Hoechst, 20 μg/ml (Sigma, 33342) in blocking solution, and washed again 3 times with PBS. Finally, PBS was added and high throughput imaging and analysis were performed by an IN Cell Analyzer 1000 (GE Healthcare). The robot software analyzed individual cells and divided these into HA^+ (transfected cells) and HA^− (non-transfected cells). The IC50 values in Table 7 below were based on an average measure of the staining of the mark specified in the Table 6 below in the transfected cells.

PLU1 (KDM5B) = target: T2, PLU1 (KDM5B) (Homo sapiens, UniProt Q9UGL1); assay: Immunofluorescence assay in U2OS cells transfected with pCMVHA PLU1 (H3K4me2 mark); type: cell-based; details: 20 hours
T2 construct: (1-752); host or cells: U2OS
T2 sequence (Q9UGL1 1-752): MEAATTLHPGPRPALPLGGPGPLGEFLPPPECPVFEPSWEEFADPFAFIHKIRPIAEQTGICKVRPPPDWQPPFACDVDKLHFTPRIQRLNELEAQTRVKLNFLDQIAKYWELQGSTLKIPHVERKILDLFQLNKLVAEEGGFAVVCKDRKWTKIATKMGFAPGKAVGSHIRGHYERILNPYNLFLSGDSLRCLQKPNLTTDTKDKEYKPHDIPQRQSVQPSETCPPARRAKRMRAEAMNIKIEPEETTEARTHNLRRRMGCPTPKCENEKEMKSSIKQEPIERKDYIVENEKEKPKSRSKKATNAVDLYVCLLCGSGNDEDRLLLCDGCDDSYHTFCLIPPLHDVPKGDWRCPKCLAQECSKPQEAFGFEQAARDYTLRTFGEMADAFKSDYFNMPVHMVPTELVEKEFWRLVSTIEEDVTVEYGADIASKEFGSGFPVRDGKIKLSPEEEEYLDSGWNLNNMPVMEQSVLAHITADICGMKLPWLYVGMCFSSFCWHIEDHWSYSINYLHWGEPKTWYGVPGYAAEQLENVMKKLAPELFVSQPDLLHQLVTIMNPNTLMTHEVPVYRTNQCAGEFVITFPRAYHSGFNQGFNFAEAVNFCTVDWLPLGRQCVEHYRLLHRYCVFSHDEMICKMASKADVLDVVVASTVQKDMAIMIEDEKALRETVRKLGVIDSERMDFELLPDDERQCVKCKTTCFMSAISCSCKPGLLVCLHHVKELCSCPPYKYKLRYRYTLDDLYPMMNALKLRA
Procedure: as §1

| Compound | IC50 (GASC1 (KDM4C)) | IC50 (PLU1 (KDM5B)) |
| --- | --- | --- |
| CCN1CCCC1CNC(=O)CNCc1cc(C(=O)O)ccn1 (centres unmarked) [drawing 313, 2-{[({[(1-ethylpyrrolidin-2-yl)methyl]carbamoyl}methyl)amino]methyl}pyridine-4-carboxylic acid] | > 50 µM | 1 to 50 µM |
| O=C(O)c1ccnc(CNCC[C@@H]2CCCN2Cc2ccccc2)c1 [2-[({2-[(2S)-1-benzylpyrrolidin-2-yl]ethyl}amino)methyl] pyridine-4-carboxylic acid] | > 50 µM | 1 to 50 µM |
| CCCCN(C)C(=O)CNCc1cc(C(=O)O)ccn1 [drawing 306, 2-[({[butyl(methyl)carbamoyl]methyl}amino)methyl] pyridine-4-carboxylic acid] | 1 to 50 µM | > 50 µM |
| O=C(O)c1ccnc(CN[C@@H]2CCN(CCCc3ccccc3)C2)c1 [drawing 315, 2-({[(3R)-1-(3-phenylpropyl)pyrrolidin-3-yl]amino}methyl)pyridine-4-carboxylic acid] | > 50 µM | 1 to 50 µM |
| CN(CCC(N)=O)C(=O)CNCc1cc(C(=O)O)ccn1 [drawing 311, 2-[({[(2-carbamoylethyl)(methyl)carbamoyl]methyl}amino)methyl]pyridine-4-carboxylic acid] | > 50 µM |  |
| CN(Cc1ccnn1C)C(=O)CNCc1cc(C(=O)O)ccn1 [drawing 314, 2-{[({methyl[(1-methyl-1H-pyrazol-5-yl)methyl]carbamoyl}methyl)amino]methyl}pyridine-4-carboxylic acid] | > 50 µM | > 50 µM |
| CCOC(=O)c1ccccc1OC(=O)c1ccnc(CNCCCCN(CC)CC)c1 [drawing 330, 2-(ethoxycarbonyl) phenyl 2-({[4-(diethylamino)butyl]amino}methyl)pyridine-4-carboxylate] | 1 to 50 µM | < 1 µM |
| CCN(CC)CCCCNCc1cc(C(=O)OCCCN(C)C)ccn1 [drawing 332, 3-(dimethylamino) propyl 2-({[4-(diethylamino)butyl]amino}methyl)pyridine-4-carboxylate] | 1 to 50 µM | 1 to 50 µM |
| O=C(CNCc1cc(C(=O)O)ccn1)NC1CCN(CCCc2ccccc2)CC1 [drawing 317, 2-{[({[1-(3-phenylpropyl)piperidin-4-yl]carbamoyl}methyl)amino]methyl}pyridine-4-carboxylic acid] | > 50 µM | > 50 µM |
| COC(=O)c1ccnc(CNCCCN2CCCC2)c1 [drawing 326, methyl 2-({[3-(pyrrolidin-1-yl)propyl]amino}methyl) pyridine-4-carboxylate] | 1 to 50 µM | 1 to 50 µM |
| CCN(CC)CCCCNCc1cc(C(=O)OCCN(C)C)ccn1 [drawing 331, 2-(dimethylamino) ethyl 2-({[4-(diethylamino)butyl]amino}methyl)pyridine-4-carboxylate] | 1 to 50 µM | 1 to 50 µM |
| O=C(O)c1ccnc(CNCCCn2ccnc2)c1 [drawing 296, 2-({[3-(1H-imidazol-1-yl)propyl]amino}methyl) pyridine-4-carboxylic acid] | > 50 µM | 1 to 50 µM |
| CCN(CC)CCCCNCc1cc(C(=O)O)ccn1 [drawing 327, 2-({[4-(diethylamino)butyl]amino}methyl)pyridine-4-carboxylic acid] | 1 to 50 µM | 1 to 50 µM |
| O=C(O)c1ccnc(CNCC(=O)N2CCCC2)c1 [drawing 305, 2-({[2-oxo-2-(pyrrolidin-1-yl)ethyl]amino}methyl) pyridine-4-carboxylic acid] | 1 to 50 µM | > 50 µM |
| CN(C)CCCCNCc1cc(C(=O)O)ccn1 [2-({[4-(dimethylamino)butyl]amino}methyl)pyridine-4-carboxylic acid] | > 50 µM | 1 to 50 µM |
| O=C(O)c1ccnc(CNCC2CC2)c1 [drawing 299, 2-{[(cyclopropylmethyl)amino]methyl}pyridine-4-carboxylic acid] | > 50 µM | 1 to 50 µM |
| CN(C)CCN(C)Cc1cc(C(=O)O)ccn1 [drawing 301, 2-({[2-(dimethylamino)ethyl](methyl)amino}methyl)pyridine-4-carboxylic acid] | > 50 µM | > 50 µM |
| CN(C)CCNCc1cc(C(=O)O)ccn1 [drawing 297, 2-({[2-(dimethylamino)ethyl]amino}methyl)pyridine-4-carboxylic acid] | 1 to 50 µM | 1 to 50 µM |
| O=C(CNCc1cc(C(=O)O)ccn1)NC1CCN(Cc2ccco2)CC1 [drawing 318, 2-{[({[1-(furan-2-ylmethyl)piperidin-4-yl]carbamoyl}methyl)amino]methyl}pyridine-4-carboxylic acid] | > 50 µM | > 50 µM |
| O=C(O)c1ccnc(CNCCCNCCCN2CCCC2)c1 [drawing 310, 2-{[(3-{[3-(pyrrolidin-1-yl)propyl]amino}propyl)amino]methyl}pyridine-4-carboxylic acid] | > 50 µM | > 50 µM |
| CCN(CC)CCCCNCc1cc(C(=O)Oc2ccc(OC)cc2)ccn1 [drawing 329, 4-methoxyphenyl 2-({[4-(diethylamino)butyl]amino}methyl)pyridine-4-carboxylate] | 1 to 50 µM | < 1 µM |
| O=C(O)c1ccnc(CNC[C@@H](O)CO)c1 [drawing 298, 2-({[(2R)-2,3-dihydroxypropyl]amino}methyl)pyridine-4-carboxylic acid] | > 50 µM | > 50 µM |
| O=C(CNCc1cc(C(=O)O)ccn1)NC1CCN(Cc2ccc(-c3ccccc3)o2)CC1 [drawing 319, 2-({[({1-[(5-phenylfuran-2-yl)methyl]piperidin-4-yl}carbamoyl)methyl]amino}methyl)pyridine-4-carboxylic acid] | > 50 µM | > 50 µM |
| O=C(O)c1ccnc(CNCCCN2CCCC2)c1 [drawing 325, 2-({[3-(pyrrolidin-1-yl)propyl]amino}methyl)pyridine-4-carboxylic acid] | 1 to 50 µM | 1 to 50 µM |
| Cn1c(CNCc2cc(C(=O)O)ccn2)nc2ccccc21 [drawing 307, 2-({[(1-methyl-1H-1,3-benzodiazol-2-yl)methyl)amino}methyl) pyridine-4-carboxylic acid] | > 50 µM | 1 to 50 µM |
| O=C(O)c1ccnc(CNCc2ccco2)c1 [drawing 303, 2-{[(furan-2-ylmethyl)amino]methyl}pyridine-4-carboxylic acid] | 1 to 50 µM |  |

From patent US10221139B2, “Inhibitors of histone demethylases” (Gilead Sciences, Inc., priority 2012, dated 2019)
